Experimental data from patent US6822146B2, “Sulfonylurea-tolerant sunflower line M7” (priority 2000, dated 2004).

Legend:
[1] = system: H89A × RHA274 (sulfonylurea-susceptible hybrid); assay: Test G control of volunteer sunflower, H89A × RHA274; type: in vivo; conditions: 530 g a.i./ha; rated 4 weeks after application; scale 0-100
BC2-M3M11 = assay: Test G control of volunteer sunflower, BC2-M3M11; type: in vivo; conditions: 530 g a.i./ha; rated 4 weeks after application; scale 0-100
BC2-M3M12 = assay: Test G control of volunteer sunflower, BC2-M3M12; type: in vivo; conditions: 530 g a.i./ha; rated 4 weeks after application; scale 0-100
[2] = system: mutants originating from M11 and M12; conditions: Test G rates
Source text: This test involved sulfonylurea-resistant sunflower progeny BC2-M3M11 and BC2-M3M12, derived from M11 and M12, respectively. Also, a sulfonylurea-susceptible hybrid, H89A×RHA274, was included for comparison. Plants were sprayed with formulated herbicides at the 4-leaf stage. The efficacy of the treatments on the sunflowers was visually rated 4 weeks after application, using a scale where 0 means no control of the sunflowers, 85 means sufficient efficacy level to stop plants from flowering and propagating, and 100 means a complete destruction of the mutants.
Weed control in sugar beet requires 2-3 herbicide applications per season to efficiently control weeds in this slow growing crop.

Chenopodium album = assay: Test H weed control, field plots; type: in vivo; conditions: 36 days after treatment; g a.i./ha: tribenuron-methyl 22.5, metsulfuron-methyl 6, ethametsulfuron-methyl 16, imazapyr isopropylamine salt 15, aclonifen 1200
Source text: (§1) Field plots (2 m×5 m) were tilled to remove weed cover and then seeded in rows with the following weeds: Capsella bursa pastoris, Atriplex patula, Chenopodium album, Stellaria media, Mecurialis annua, Polygonum persicaria, Amaranthus retroflexus, Polygonum convolvulus, Polygonum aviculare, Viola arvensis, Matricaria inodora, Anagallis arvensis, Sinapis arvensis, Setaria viridis, Solanum nigrum and Echinochloa crusgalli. After 21 days from sowing, at which time the weeds had reached the 2- to 6-leaf stage, herbicide treatments were applied to the plots according to a complete randomized block design, with each herbicide treatment triply replicated. The herbicides were sprayed using standard flat fan nozzles moved perpendicular to the sown lines using water spray volumes of about 296 L/ha.
(§2) Assessments of weed control were made by visual inspection 36 days after herbicide treatment. A visual rating system was used based on a percentage scale from 0 to 100% compared to an adjacent untreated control plot. On this scale 0 represents no visual differences relative to an untreated control and 100 represents complete control of the given weed species.

Stellaria media = assay: Test H weed control, field plots; type: in vivo; conditions: 36 days after treatment; g a.i./ha: tribenuron-methyl 22.5, metsulfuron-methyl 6, ethametsulfuron-methyl 16, imazapyr isopropylamine salt 15, aclonifen 1200
Source text: as §1, §2

Amaranthus retroflexus = assay: Test H weed control, field plots; type: in vivo; design: concentration or dose not given beside the values; conditions: 36 days after treatment; g a.i./ha: tribenuron-methyl 22.5, metsulfuron-methyl 6, ethametsulfuron-methyl 16, imazapyr isopropylamine salt 15, aclonifen 1200
Source text: as §1, §2

Anagallis arvensis = assay: Test H weed control, field plots; type: in vivo; design: concentration or dose not given beside the values; conditions: 36 days after treatment; g a.i./ha: tribenuron-methyl 22.5, metsulfuron-methyl 6, ethametsulfuron-methyl 16, imazapyr isopropylamine salt 15, aclonifen 1200
Source text: as §1, §2

Atriplex patula = assay: Test H weed control, field plots; type: in vivo; design: concentration or dose not given beside the values; conditions: 36 days after treatment; g a.i./ha: tribenuron-methyl 22.5, metsulfuron-methyl 6, ethametsulfuron-methyl 16, imazapyr isopropylamine salt 15, aclonifen 1200
Source text: as §1, §2

Capsella bursa pastoris = assay: Test H weed control, field plots; type: in vivo; design: concentration or dose not given beside the values; conditions: 36 days after treatment; g a.i./ha: tribenuron-methyl 22.5, metsulfuron-methyl 6, ethametsulfuron-methyl 16, imazapyr isopropylamine salt 15, aclonifen 1200
Source text: as §1, §2

Echinochloa crus-galli = assay: Test H weed control, field plots; type: in vivo; design: concentration or dose not given beside the values; conditions: 36 days after treatment; g a.i./ha: tribenuron-methyl 22.5, metsulfuron-methyl 6, ethametsulfuron-methyl 16, imazapyr isopropylamine salt 15, aclonifen 1200
Source text: as §1, §2

Matricaria inodora = assay: Test H weed control, field plots; type: in vivo; design: concentration or dose not given beside the values; conditions: 36 days after treatment; g a.i./ha: tribenuron-methyl 22.5, metsulfuron-methyl 6, ethametsulfuron-methyl 16, imazapyr isopropylamine salt 15, aclonifen 1200
Source text: as §1, §2

Mercurialis annua = assay: Test H weed control, field plots; type: in vivo; design: concentration or dose not given beside the values; conditions: 36 days after treatment; g a.i./ha: tribenuron-methyl 22.5, metsulfuron-methyl 6, ethametsulfuron-methyl 16, imazapyr isopropylamine salt 15, aclonifen 1200
Source text: as §1, §2

Polygonum aviculare = assay: Test H weed control, field plots; type: in vivo; design: concentration or dose not given beside the values; conditions: 36 days after treatment; g a.i./ha: tribenuron-methyl 22.5, metsulfuron-methyl 6, ethametsulfuron-methyl 16, imazapyr isopropylamine salt 15, aclonifen 1200
Source text: as §1, §2

Polygonum convolvulus = assay: Test H weed control, field plots; type: in vivo; design: concentration or dose not given beside the values; conditions: 36 days after treatment; g a.i./ha: tribenuron-methyl 22.5, metsulfuron-methyl 6, ethametsulfuron-methyl 16, imazapyr isopropylamine salt 15, aclonifen 1200
Source text: as §1, §2

Polygonum persicaria = assay: Test H weed control, field plots; type: in vivo; design: concentration or dose not given beside the values; conditions: 36 days after treatment; g a.i./ha: tribenuron-methyl 22.5, metsulfuron-methyl 6, ethametsulfuron-methyl 16, imazapyr isopropylamine salt 15, aclonifen 1200
Source text: as §1, §2

Setaria viridis = assay: Test H weed control, field plots; type: in vivo; design: concentration or dose not given beside the values; conditions: 36 days after treatment; g a.i./ha: tribenuron-methyl 22.5, metsulfuron-methyl 6, ethametsulfuron-methyl 16, imazapyr isopropylamine salt 15, aclonifen 1200
Source text: as §1, §2

Sinapis arvensis = assay: Test H weed control, field plots; type: in vivo; design: concentration or dose not given beside the values; conditions: 36 days after treatment; g a.i./ha: tribenuron-methyl 22.5, metsulfuron-methyl 6, ethametsulfuron-methyl 16, imazapyr isopropylamine salt 15, aclonifen 1200
Source text: as §1, §2

Solanum nigrum = assay: Test H weed control, field plots; type: in vivo; design: concentration or dose not given beside the values; conditions: 36 days after treatment; g a.i./ha: tribenuron-methyl 22.5, metsulfuron-methyl 6, ethametsulfuron-methyl 16, imazapyr isopropylamine salt 15, aclonifen 1200
Source text: as §1, §2

Viola arvensis = assay: Test H weed control, field plots; type: in vivo; design: concentration or dose not given beside the values; conditions: 36 days after treatment; g a.i./ha: tribenuron-methyl 22.5, metsulfuron-methyl 6, ethametsulfuron-methyl 16, imazapyr isopropylamine salt 15, aclonifen 1200
Source text: as §1, §2

SMILES	Efficacy on H89A × RHA274 [1]	Efficacy on BC2-M3M11 (BC2-M3M11)	Efficacy on BC2-M3M12 (BC2-M3M12)	efficacy against the mutants [2]	weed control, visual rating: Chenopodium album (Chenopodium album)	weed control, visual rating: Stellaria media (Stellaria media)	weed control, visual rating: Amaranthus retroflexus (Amaranthus retroflexus)	weed control, visual rating: Anagallis arvensis (Anagallis arvensis)	weed control, visual rating: Atriplex patula (Atriplex patula)	weed control, visual rating: Capsella bursa pastoris (Capsella bursa pastoris)	weed control, visual rating: Echinochloa crus-galli (Echinochloa crus-galli)	weed control, visual rating: Matricaria inodora (Matricaria inodora)	weed control, visual rating: Mercurialis annua (Mercurialis annua)	weed control, visual rating: Polygonum aviculare (Polygonum aviculare)	weed control, visual rating: Polygonum convolvulus (Polygonum convolvulus)	weed control, visual rating: Polygonum persicaria (Polygonum persicaria)	weed control, visual rating: Setaria viridis (Setaria viridis)	weed control, visual rating: Sinapis arvensis (Sinapis arvensis)	weed control, visual rating: Solanum nigrum (Solanum nigrum)	weed control, visual rating: Viola arvensis (Viola arvensis)
O=C(O)COc1ccc(Cl)cc1Cl [2,4-D, 2,4-dichlorophenoxyacetic acid]	100	100	100	completely-destroyed																
Nc1c([N+](=O)[O-])ccc(Oc2ccccc2)c1Cl [Aclonifen, aclonifen]					100%	100%	40%	100%	0%	100%	0%	0%	50%	30%	23%	70%	40%	100%	20%	57%
